Assay results taken from article PMC8202330, “Phosphorylation of the LIR Domain of SCOC Modulates ATG8 Binding Affinity and Specificity” (Journal of Molecular Biology, 2021).
Residues, ends and D or L forms follow the SMILES beside them. *: point of attachment. Cbz = O=C(OCc1ccccc1)*

Tested on: EGFP-SCOC (isoform 1 and 3) in HeLa Flp-In T-Rex cells
Test: Western blot of EGFP-SCOC protein levels with lysosomal or proteasomal inhibitors
Type: cell-based
Details: 7 h in full medium or EBSS, 10 µM MG132, 1 µM epoxymycin, 100 nM Bafilomycin A1
Method: To determine whether SCOC is functioning as an autophagy receptor and degraded by autophagy, we induced expression of EGFP-SCOC (isoform 1 and 3) in HeLa cells followed by 7 h EBSS starvation in the presence and absence of lysosomal or proteasomal inhibitors. […] Thus, both SCOC isoform1 and 3 are not turned over by autophagy, but by the proteasome.
HeLa Flp-In T-Rex cell lines expressing GFP-SCOC (isoform 1), GFP-SCOC (isoform 3), GFP-SCOC F14A/I17A (isoform 3) from a tetracycline inducible CMV promoter were made using the FlpIn T-Rex system (Thermofisher, R71407). pDest-EGFP-Flp-In SCOC iso1, pDest-EGFP-Flp-In SCOC iso3 and pDest-EGFP-Flp-In SCOC iso3 LIRm constructs were established by GATEWAY cloning into the pDEST-EGFP-FlpIn vector.[18] The HeLa-based Flp-In T-Rex host cell line (Invitrogen) contains a single integrated FRT site for insertion of selected constructs. To generate stable cell lines, Flp-In plasmids carrying the selected GFP-tagged constructs were co-transfected with pOG44 encoding the Flp-In recombinase in the ratio of 1:3. Cells were selected by treatment with 200 µg/ml Hygromycin B (Invitrogen, #10687010) and 7,5 µg/ml Blasticidine (Gibco, A1113903). Expression from the CMV-TetO2 promoter was induced by adding 0.5 μg/ml of tetracycline (Sigma, T7660) for 16 to 24 hours. HeLa Flp-In T-Rex cell lines were maintained in Dulbecco’s modified Eagle’s medium supplemented with 10% fetal calf serum, 4 mM l-glutamine, 1% streptomycin-penicillin, 100 µg/ml Hygromycin B, and 3.5 µg/ml Blasticitidine. Cells were treated as indicated with 100 nM Bafilomycin A1, 10 µM MG132, or 1 µM epoxomicin in full medium or Earle’s balanced salt solution (EBSS).
Cells were lysed in ice-cold TNTE buffer (20 mM Tris-HCl, pH 7.4, 150 mM NaCl, 0.5% w/v Triton X-100, 10% v/v glycerol, 5 mM EDTA) containing EDTA-free Complete Protease Inhibitor cocktail (Roche) and PhosSTOP (Roche). Lysates were cleared by centrifugation and resolved on NuPAGE Bis-Tris 4–12% gels (Life Technologies) followed by transfer onto a PVDF membrane (Millipore). […]

CO/C1=C\C(C)=C\[C@@H](C)[C@@H](O)[C@@H](C)C/C(C)=C/C=C/[C@H](OC)[C@@H]([C@@H](C)[C@@H](O)[C@H](C)[C@@]2(O)C[C@@H](O)[C@H](C)[C@@H](C(C)C)O2)OC1=O [BafilomycinA1]
SCOC isoform 1 and 3 protein levels: did not have any effect

CC(C)C[C@@H](C=O)NC(=O)[C@H](CC(C)C)NC(=O)[C@H](CC(C)C)NC(=O)OCc1ccccc1 [MG132] (Cbz-Leu-Leu-Leu-aldehyde)
SCOC isoform 1 and 3 protein levels: increased

CC[C@H](C)[C@H](NC(=O)[C@H]([C@@H](C)CC)N(C)C(C)=O)C(=O)N[C@H](C(=O)N[C@@H](CC(C)C)C(=O)[C@@]1(C)CO1)[C@@H](C)O [epoxymycin]
SCOC isoform 1 and 3 protein levels: increased
